pIC50, pKi: −log10 of the molar value. Entries after “also recorded” stand apart in the source; their conditions may differ.
Assays:
[1] = molecular target: T1, SHP2-E76K (Homo sapiens, UniProt Q06124, E76K); experiment: Time-dependent inhibition (preincubation 1-60 min); format: biochemical; settings: preincubation 1, 5, 10, 20 or 60 min with SHP2-E76K
T1 construct: Recombinant human full-length SHP2 (1–594) WT and E76K mutants; made in house
T1 sequence (Q06124 1-593 E76K): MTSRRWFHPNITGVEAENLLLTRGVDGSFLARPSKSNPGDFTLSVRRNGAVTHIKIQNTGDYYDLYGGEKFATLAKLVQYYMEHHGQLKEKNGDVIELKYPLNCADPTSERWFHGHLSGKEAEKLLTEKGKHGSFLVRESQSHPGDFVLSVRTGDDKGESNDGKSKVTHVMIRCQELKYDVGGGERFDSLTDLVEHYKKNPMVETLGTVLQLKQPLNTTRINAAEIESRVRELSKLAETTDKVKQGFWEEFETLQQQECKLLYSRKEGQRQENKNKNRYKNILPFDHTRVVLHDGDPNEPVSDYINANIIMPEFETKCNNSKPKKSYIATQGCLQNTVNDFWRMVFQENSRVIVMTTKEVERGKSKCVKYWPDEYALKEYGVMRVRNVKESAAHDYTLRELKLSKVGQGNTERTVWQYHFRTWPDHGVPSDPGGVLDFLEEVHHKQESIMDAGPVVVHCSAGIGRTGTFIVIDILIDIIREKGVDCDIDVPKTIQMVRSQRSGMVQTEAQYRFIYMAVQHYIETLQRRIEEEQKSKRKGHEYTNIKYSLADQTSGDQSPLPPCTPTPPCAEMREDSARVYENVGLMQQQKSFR
Method: PTPs contain a highly nucleophilic cysteine that is essential for catalytic activity but is susceptible to oxidation and covalent modifications, which abrogate its nucleophilic function and phosphatase activity ([26]). Because the methylenebenzothiophenone moiety of our inhibitors could potentially act as a Michael acceptor and thus covalently bind to the catalytic cysteine, we tested whether the observed inhibition of SHP2 was dependent on the preincubation time of inhibitor and enzyme. An irreversible covalent inhibitor may show time-dependent inhibition, with increased potency at longer incubation times. Conversely, the potency of a noncovalent inhibitor is expected to be insensitive to the time it is incubated with the enzyme. To test for time-dependent inhibition, SBI-2130 at ten different concentrations was preincubated with SHP2-E76K for 1, 5, 10, 20, or 60 min, before the DiFMUP substrate was added to the reaction mixture and initial rates were recorded (Fig. 3C). […] In addition, we used mass spectrometry to test whether inhibitor:protein adducts are being formed. Specifically, we incubated SHP2cat (5 μM) with SBI-4668 (100 μM) in assay buffer for various times (1, 5, 20, and 60 min) before trypsin proteolysis and subsequent mass spectrometry analysis. […] Finally, we performed a jump-dilution experiment to test for irreversible inhibition of SHP2. […]

[2] = molecular target: T1, SHP2-E76K; experiment: Michaelis–Menten kinetics and mode of inhibition; format: biochemical
Source text: We previously reported furanylsalicylic acids as potent and selective inhibitors of the Yersinia tyrosine phosphatase YopH ([37], [38]). […] Thus, we tested whether replacement of the neutral 2-hydroxybenzamide moiety with the negatively charged salicylate would be beneficial for the potency of this scaffold against SHP2. […] To corroborate this postulate, we subjected SBI-4668 to Michaelis–Menten kinetic studies with SHP2-E76K to determine its mode of inhibition (Fig. 3, A and B). Using nonlinear regression, initial rates at various inhibitor and substrate concentrations were fitted to the Michaelis–Menten equations for competitive, noncompetitive, uncompetitive, and mixed inhibitions. Fitting models were then compared using Akaike's Information Criterion (AIC), and inhibition mode probabilities were calculated from the differences between the corresponding second-order corrected AIC scores as previously described ([38], [39]).
SBI-4668 was tested with SHP2-E76K using a similar assay format as described previously. SBI-4668 or vehicle (DMSO) was spotted in triplicate into a black Greiner FLUOTRAC 200 384-well microplate (catalog no.: #781076; Greiner) using an Echo 555 Liquid Handler (Labcyte, Inc). […] Fluorescence intensity was measured in kinetic mode as described previously. The initial rates were determined from the linear progression curves of each SHP2-E76K reaction. […]

[3] = tested on: BT-549 TNBC cells; experiment: TNBC cell viability (CellTiter-Glo), BT-549; format: cell-based; settings: Homo sapiens, BT-549; 72 h per text; 5 days per legend and method
Method: Inhibition of SHP2 has been reported to inhibit the growth of cancer cells including Kasumi-1 acute myeloid leukemia (AML) and KYSE-520 esophageal cancer cells ([30]). […] Thus, we treated two TNBC cell lines, BT-549 and MDA-MB-468, with SBI-4668 or the SHP2 allosteric inhibitor SHP099 at various concentrations and determined cell viability after 72 h, compared with the vehicle control (Fig. 4C). […] Next, we performed an 11-day colony formation assay with TNBC cells treated with SBI-4668 or SHP099 at 5, 10, or 20 μM (Fig. 4D).
Triple-negative breast cancer cell viability was assessed using the ATP-depletion assay CellTiter-Glo. Briefly, 2500 cells in 25 μl media (RPMI + 10% FBS + 1× penicillin–streptomycin [Omega Scientific]) were seeded per well of a 384-well tissue culture–treated plate (Greiner). About 25 nl of 1000× test compound were added using a Labcyte Echo acoustic dispenser, and the cells were incubated for 5 days before addition of 10 μl of CellTiter-Glo reagent as described by the manufacturer. Luminescence was detected on a BioTek Synergy 2 microplate reader, and the values normalized to those of vehicle (DMSO)-treated controls before being plotted using GraphPad Prism.

SMILES | time-dependent inhibition [1] | mode of inhibition ([2]; AIC model comparison) | pKi ([2]; DiFMUP, read-out: inhibition constant (Ki) for noncompetitive inhibition) | pIC50 [3]
Nc1ccc(NC(=O)c2cc(-c3ccc(/C=C4\Sc5ccccc5C4=O)o3)ccc2O)cc1 [SBI-2130, (Z)-N-(4-Aminophenyl)-2-hydroxy-5-(5-((3-oxobenzo[b]thiophen-2(3H)-ylidene)methyl)furan-2-yl)benzamide] | No time-dependent inhibition; also recorded: not time dependent |  |  | 
O=C(Nc1ccccc1)c1cc(-c2ccc(/C=C3\Sc4ccccc4C3=O)o2)ccc1O [SBI-4668, (Z)-2-Hydroxy-5-(5-((3-oxobenzo[b]thiophen-2(3H)-ylidene)methyl)furan-2-yl)-N-phenylbenzamide] |  | either a noncompetitive or a mixed inhibition mechanism | 5.74 | 5.27

From paper PMC8760490, “Discovery of novel furanylbenzamide inhibitors that target oncogenic tyrosine phosphatase SHP2 in leukemia cells” (The Journal of Biological Chemistry, 2021)
